One substance from patent US20120321579A1, “SURFACTANT COMPOSITIONS” (ANTERIOS, INC., priority 2011, published 2012) can be followed below.

The test has as its system Axillary Sweating. Kind of test: Clinical study to evaluate effect of Polysorbate 80 on axillary sweating (gravimetric sweat measurement). Format: in vivo, human.

Polysorbate 80: the “conclusion on activity in reducing sweat production” value (conclusion from the clinical study) is listed as “biologically active in reducing sweat production”. The “reduction in sweat production (average) as measured by gravimetric sweat measurement” value (two weeks after a single topical treatment, 14.34 mg Polysorbate 80 per axilla (0.3 mL/axilla), subjects with moderate to severe primary axillary hyperhidrosis, 5 minute collection) was determined as 159 mg. For the same substance, the “greater reduction in sweat production than the subjects in the control group (placebo, water)” value (two weeks after a single topical treatment, 14.34 mg per axilla, 159 mg versus 53 mg placebo) worked out at 300%. Where the note is “two weeks after a single topical treatment, 14.34 mg per axilla, gravimetric sweat measurement”, the “percent of subjects with at least a 30% reduction in sweat production when compared to levels at the Baseline visit” value was determined as 80%. The “greater effectiveness in reducing sweat production than subjects treated with placebo (responder assessment)” value (two weeks after a single topical treatment, 80% versus 29% of subjects with at least a 30% reduction) is on record as 280%.
